According to US20170173002A1, “Compositions and Methods for Treating an Infection” (CMPD LICENSING, LLC, priority 2015, published 2017):

Tests used:
[1] = system: Methicillin resistant staph aureus (MRSA); test: Expected efficacy of antibiotic agents; conditions: expected efficacy against Methicillin resistant staph aureus (MRSA)
[2] = system: Bordetella pertussis; test: Expected efficacy of antibiotic agents; conditions: expected efficacy against Bordetella pertussis
[3] = system: Haemophilus parainfluenzae; test: Expected efficacy of antibiotic agents; conditions: expected efficacy against Haemophilus parainfluenzae
[4] = system: Moraxella catarrhalis; test: Expected efficacy of antibiotic agents; conditions: expected efficacy against Moraxella catarrhalis
[5] = system: Klebsiella oxytoca; test: Expected efficacy of antibiotic agents; conditions: expected efficacy against Klebsiella oxytoca
[6] = system: Clostridium perfringens; conditions: expected efficacy against Clostridium perfringens
[7] = system: Klebsiella (Calymmatobacterium) granulomatis; test: Expected efficacy of antibiotic agents; conditions: expected efficacy against Klebsiella (Calymmatobacterium) granulomatis
[8] = system: Viridans group streptococci; test: Expected efficacy of antibiotic agents; conditions: expected efficacy against Viridans group streptococci
[9] = system: Streptococcus pneumoniae; test: Expected efficacy of antibiotic agents; conditions: expected efficacy against Streptococcus pneumoniae
[10] = system: Acinetobacter lwoffii; test: Expected efficacy of antibiotic agents; conditions: expected efficacy against Acinetobacter lwoffii
[11] = system: Streptococcus agalactiae; test: Expected efficacy of antibiotic agents; conditions: expected efficacy against Streptococcus agalactiae
[12] = system: Serratia marcescens; test: Expected efficacy of antibiotic agents; conditions: expected efficacy against Serratia marcescens
[13] = system: Pseudomonas aeruginosa; test: Expected efficacy of antibiotic agents; conditions: expected efficacy against Pseudomonas aeruginosa
[14] = system: Acinetobacter baumannii; test: Expected efficacy of antibiotic agents; conditions: expected efficacy against Acinetobacter baumannii
[15] = system: Bacteroides fragilis; test: Expected efficacy of antibiotic agents; conditions: expected efficacy against Bacteroides fragilis
[16] = system: Morganella morganii; test: Expected efficacy of antibiotic agents; conditions: expected efficacy against Morganella morganii
[17] = system: Vibrio cholerae; test: Expected efficacy of antibiotic agents; conditions: expected efficacy against Vibrio cholerae
[18] = system: Chlamydia pneumoniae; test: Expected efficacy of antibiotic agents; conditions: expected efficacy against Chlamydia pneumoniae
[19] = system: Corynebacterium urealyticum; test: Expected efficacy of antibiotic agents; conditions: expected efficacy against Corynebacterium urealyticum
[20] = system: Staphylococcus epidermidis; test: Expected efficacy of antibiotic agents; conditions: expected efficacy against Staphylococcus epidermidis
[21] = system: Shigella flexneri; test: Expected efficacy of antibiotic agents; conditions: expected efficacy against Shigella flexneri
[22] = system: Shigella sonnei; test: Expected efficacy of antibiotic agents; conditions: expected efficacy against Shigella sonnei
[23] = system: Haemophilus ducreyi; test: Expected efficacy of antibiotic agents; conditions: expected efficacy against Haemophilus ducreyi
[24] = system: Staphylococcus aureus (MSSA); test: Expected efficacy of antibiotic agents; conditions: expected efficacy against Staphylococcus aureus (MSSA)
[25] = system: Streptococcus pyogenes; test: Expected efficacy of antibiotic agents; conditions: expected efficacy against Streptococcus pyogenes
[26] = system: Enterococcus faecium; test: Expected efficacy of antibiotic agents; conditions: expected efficacy against Enterococcus faecium
[27] = system: Shigella dysenteriae; test: Expected efficacy of antibiotic agents; conditions: expected efficacy against Shigella dysenteriae
[28] = system: Legionella pneumophila; conditions: expected efficacy against Legionella pneumophila
[29] = system: Yersinia pestis; conditions: expected efficacy against Yersinia pestis
[30] = system: Mycoplasma pneumoniae; test: Expected efficacy of antibiotic agents; conditions: expected efficacy against Mycoplasma pneumoniae
[31] = system: Salmonella typhi; test: Expected efficacy of antibiotic agents; conditions: expected efficacy against Salmonella typhi
[32] = system: Neisseria gonorrhoeae; test: Expected efficacy of antibiotic agents; conditions: expected efficacy against Neisseria gonorrhoeae
[33] = system: Neisseria meningitidis; test: Expected efficacy of antibiotic agents; conditions: expected efficacy against Neisseria meningitidis
[34] = system: Providencia stuartii; test: Expected efficacy of antibiotic agents; conditions: expected efficacy against Providencia stuartii
[35] = system: Citrobacter diversus; test: Expected efficacy of antibiotic agents; conditions: expected efficacy against Citrobacter diversus
[36] = system: Corynebacterium jeikeium; test: Expected efficacy of antibiotic agents; conditions: expected efficacy against Corynebacterium jeikeium
[37] = system: Acinetobacter calcoaceticus; test: Expected efficacy of antibiotic agents; conditions: expected efficacy against Acinetobacter calcoaceticus
[38] = system: Haemophilus influenzae; test: Expected efficacy of antibiotic agents; conditions: expected efficacy against Haemophilus influenzae
[39] = system: Citrobacter freundii; test: Expected efficacy of antibiotic agents; conditions: expected efficacy against Citrobacter freundii
[40] = system: Enterobacter aerogenes; test: Expected efficacy of antibiotic agents; conditions: expected efficacy against Enterobacter aerogenes
[41] = system: Enterobacter cloacae; test: Expected efficacy of antibiotic agents; conditions: expected efficacy against Enterobacter cloacae
[42] = system: Enterococcus faecalis; test: Expected efficacy of antibiotic agents; conditions: expected efficacy against Enterococcus faecalis
[43] = system: Peptostreptococcus; test: Expected efficacy of antibiotic agents; conditions: expected efficacy against Peptostreptococcus
[44] = system: Shigella boydii; test: Expected efficacy of antibiotic agents; conditions: expected efficacy against Shigella boydii
[45] = system: Francisella tularensis; conditions: expected efficacy against Francisella tularensis
[46] = system: Chlamydia trachomatis; test: Expected efficacy of antibiotic agents; conditions: expected efficacy against Chlamydia trachomatis
[47] = system: Diphtheroids; test: Expected efficacy of antibiotic agents; conditions: expected efficacy against Diphtheroids
[48] = system: Rickettsiae; conditions: expected efficacy against Rickettsiae
[49] = system: Proteus vulgaris; test: Expected efficacy of antibiotic agents; conditions: expected efficacy against Proteus vulgaris
[50] = system: Providencia rettgeri; test: Expected efficacy of antibiotic agents; conditions: expected efficacy against Providencia rettgeri
[51] = system: Klebsiella pneumoniae; test: Expected efficacy of antibiotic agents; conditions: expected efficacy against Klebsiella pneumoniae
[52] = system: Campylobacter jejuni; test: Expected efficacy of antibiotic agents; conditions: expected efficacy against Campylobacter jejuni
[53] = system: Chlamydia psittaci; conditions: expected efficacy against Chlamydia psittaci
[54] = system: Clostridium difficile; test: Expected efficacy of antibiotic agents; conditions: expected efficacy against Clostridium difficile
[55] = system: Enterobacter sakazakii; test: Expected efficacy of antibiotic agents; conditions: expected efficacy against Enterobacter sakazakii
[56] = system: Proteus mirabilis; test: Expected efficacy of antibiotic agents; conditions: expected efficacy against Proteus mirabilis
[57] = system: Escherichia coli; test: Expected efficacy of antibiotic agents; conditions: expected efficacy against Escherichia coli
[58] = system: Pseudomonas fluorescens; test: Expected efficacy of antibiotic agents; conditions: expected efficacy against Pseudomonas fluorescens
[59] = system: Brucella species; conditions: expected efficacy against Brucella species

Measured: Efficacy

CO/N=C(\C(=O)N[C@@H]1C(=O)N2C(C(=O)O)=C(CSc3nc(=O)c(=O)[nH]n3C)CS[C@H]12)c1csc(N)n1 [Ceftriaxone, ceftriaxone]
no: [1] | [2] | [10] | [13] | [14] | [17] | [18] | [19] | [26] | [28] | [29] | [30] | [36] | [37] | [42] | [45] | [46] | [47] | [48] | [52] | [53] | [54]
not listed: [58] | [59]
yes: all other assays above

NC[C@H]1O[C@H](O[C@H]2[C@H](O)[C@@H](O[C@H]3O[C@H](CO)[C@@H](O)[C@H](N)[C@H]3O)[C@H](N)C[C@@H]2N)[C@H](N)C[C@@H]1O [Tobramycin, tobramycin]
yes: [4] | [5] | [7] | [12] | [13] | [58] | [21] | [22] | [23] | [27] | [29] | [35] | [38] | [39] | [40] | [41] | [44] | [49] | [51] | [52] | [55] | [56] | [57]
not listed: [3] | [16] | [31] | [34] | [45] | [48] | [50] | [59]
no: all other assays above

Colistimethate
yes: [5] | [7] | [13] | [58] | [40] | [41] | [51] | [55] | [57]
not listed: [6] | [10] | [14] | [16] | [21] | [22] | [23] | [27] | [29] | [31] | [35] | [37] | [38] | [39] | [44] | [45] | [48] | [52]
no: all other assays above
